A short description of series [1]: Cytotoxicity test in HEp-2 cells (CCK8 cell viability). Type of series: cell-based. To be noted: human. A digest of the protocol:
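HEp-2 cells seeded at 30,000/well, cultured overnight at 37° C./5% CO2, then exposed to diluted compound for 1 day in 0.5% DMSO. Viability read by CCK8, normalised to untreated-cell and medium-only controls; CC50 from four-parameter variable-slope fit.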

The test system of a further series is RSV A long virus strain. Type of series: cell-based. In short, it runs like this:
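HEp-2 cells (30000/well) infected with 100 PFU virus premixed 1 h with compound (8 concentrations, duplicate); after 2 h adsorption, cultured 1 day at 37 °C under 0.8% CMC overlay with compound. Plaques immunostained (RSV antibody, TrueBlue) and counted; IC50 and CC50 by non-linear fitting of % inhibition versus virus and cell controls.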

Setting [2] is: HEp-2 cells, CCK8, 1 day, read-out: CC50.
Where [3] appears, read: RSV A long virus strain, HEp-2 cells, plaque reduction, 1 day, read-out: IC50.

pIC50: −log10 of the molar value. Like-named read-outs stand apart in the source and are kept apart here. Where a SMILES comes first, the peptide text is derived from it. The star is where a group is joined. X1 = CC(C)CCCC(C)C1CCC2C3CC=C4CC(OC(=O)CCC(=O)*)CCC4(C)C3CCC12C

As to `CC[C@H](C)[C@H](NC(=O)[C@H](Cc1ccccc1)NC(=O)[C@H](CCCCN)NC(=O)[C@H](CC(C)C)NC(=O)[C@H](CO)NC(=O)[C@H](CCC(N)=O)NC(=O)[C@H](CCC(=O)O)NC(=O)[C@@H](NC(=O)[C@H](CCCCN)NC(=O)[C@H](CCCCN)NC(=O)[C@H](CC(N)=O)NC(=O)[C@@H](NC(=O)[C@H](CCC(N)=O)NC(=O)[C@H](CCC(=O)O)NC(=O)[C@H](CC(C)C)NC(=O)[C@H](CO)NC(C)=O)C(C)C)[C@@H](C)CC)C(=O)N[C@@H](CCC(=O)O)C(=O)N[C@@H](CCCCN)C(=O)N[C@@H](CO)C(=O)N[C@@H](CC(=O)O)C(=O)N[C@@H](CCCCN)C(=O)N[C@@H](CC(C)C)C(=O)N[C@@H](CC(C)C)C(=O)N[C@@H](CCC(=O)O)C(=O)N[C@@H](CC(N)=O)C(=O)NCC(=O)N[C@@H](CO)C(=O)NCC(=O)N[C@@H](CO)C(=O)NCC(=O)N[C@@H](CCCCNC(=O)CCC(=O)OC1CCC2(C)C(=CCC3C2CCC2(C)C(C(C)CCCC(C)C)CCC32)C1)C(N)=O` (stereo partly drawn) [Positive polypeptide 1, reference compound] (Ac-SLEQVNKKIEQSLKFIEKSDKLLENGSGSGK(X1)-NH2), the CC50 at 1 day in series [1] (setting [2]) was determined as 3.69 µM. Besides, the pIC50 with RSV A long virus strain (setting [3]) was 6.82.
On to “Ac-SLEQVNKINKKIDKIEESLKKIEESDKKSLEVNKKLEAAAKK-NH2 [Compound 47]”, for which the CC50 at 1 day in series [1] was over 8 µM. In the series with RSV A long virus strain, this compound had a pIC50 of under 5.10.
On to `CC[C@H](C)[C@H](NC(=O)[C@H](CCCCN)NC(=O)[C@H](CCCCN)NC(=O)[C@H](CC(C)C)NC(=O)[C@H](CO)NC(=O)[C@H](CCC(=O)O)NC(=O)[C@H](CCC(=O)O)NC(=O)[C@@H](NC(=O)[C@H](CCCCN)NC(=O)[C@H](CCCCN)NC(=O)[C@H](CC(N)=O)NC(=O)[C@@H](NC(=O)[C@H](CCC(=O)O)NC(=O)[C@H](CCC(=O)O)NC(=O)[C@@H](NC(=O)[C@H](CCCCN)NC(=O)[C@H](CCCCN)NC(=O)[C@H](CCCCN)NC(=O)[C@H](CC(=O)O)NC(=O)[C@H](Cc1ccccc1)NC(=O)[C@H](CCC(=O)O)NC(=O)[C@H](CC(=O)O)NC(C)=O)[C@@H](C)CC)C(C)C)[C@@H](C)CC)C(=O)N[C@@H](CCC(=O)O)C(=O)N[C@@H](CCC(=O)O)C(=O)N[C@@H](CO)C(=O)N[C@@H](CC(=O)O)C(=O)N[C@@H](CCCCN)C(=O)N[C@@H](CCCCN)C(=O)N[C@@H](CC(C)C)C(=O)N[C@@H](CCC(=O)O)C(=O)N[C@@H](CCC(=O)O)C(=O)N[C@H](C(N)=O)C(C)C` [Compound 3] (Ac-DEFDKKKIEEVNKKIEESLKKIEESDKKLEEV-NH2), for which the CC50 at 1 day in series [1] (setting [2]) is over 8 µM. Also, the pIC50 with RSV A long virus strain (setting [3]) is 5.35.
In series [1], “Ac-SLEQVNKINEKINKISQSLKKIEESDKKSDEVNAGLEAAAKK-NH2 [Compound 48]” had a CC50 at 1 day of over 8 µM. Moreover, the pIC50 in the series with RSV A long virus strain was under 5.10.
`CC[C@H](C)[C@H](NC(C)=O)C(=O)N[C@@H](CCC(=O)O)C(=O)N[C@@H](CCC(=O)O)C(=O)N[C@H](C(=O)N[C@@H](CC(N)=O)C(=O)N[C@@H](CCCCN)C(=O)N[C@@H](CCCCN)C(=O)N[C@H](C(=O)N[C@@H](CCC(=O)O)C(=O)N[C@@H](CCC(=O)O)C(=O)N[C@@H](CO)C(=O)N[C@@H](CC(C)C)C(=O)N[C@@H](CCCCN)C(=O)N[C@@H](CCCCN)C(=O)N[C@H](C(=O)N[C@@H](CCC(=O)O)C(=O)N[C@@H](CCC(=O)O)C(=O)N[C@@H](CO)C(=O)N[C@@H](CC(=O)O)C(=O)N[C@@H](CCCCN)C(=O)N[C@@H](CCCCN)C(=O)N[C@@H](CC(C)C)C(=O)N[C@@H](CCC(=O)O)C(=O)N[C@@H](CCC(=O)O)C(=O)N[C@H](C(=O)N[C@@H](CC(N)=O)C(=O)N[C@@H](CCCCN)C(=O)N[C@@H](CCCCN)C(=O)N[C@@H](CCCCN)C(=O)N[C@@H](CCC(=O)O)C(=O)N[C@@H](C)C(=O)N[C@@H](C)C(=O)N[C@@H](C)C(=O)N[C@@H](CCCCN)C(=O)N[C@@H](CCCCNC(=O)CCC(=O)OC1CCC2(C)C(=CCC3C2CCC2(C)C(C(C)CCCC(C)C)CCC32)C1)C(N)=O)C(C)C)[C@@H](C)CC)[C@@H](C)CC)C(C)C` (stereo partly drawn) [Positive polypeptide 3, reference compound] (Ac-IEEVNKKIEESLKKIEESDKKLEEVNKKKEAAAKK(X1)-NH2): the CC50 at 1 day in series [1] (setting [2]) is over 10 µM. Also, in the series on RSV A long virus strain (setting [3]), the pIC50 was under 6.52.
Compound `CC[C@H](C)[C@H](NC(=O)[C@H](CCCCN)NC(=O)[C@H](CCCCN)NC(=O)[C@H](CC(C)C)NC(=O)[C@@H](NC(=O)[C@H](CCC(=O)O)NC(=O)[C@H](CCC(=O)O)NC(=O)[C@@H](NC(=O)[C@H](CCCCN)NC(=O)[C@H](CCC(=O)O)NC(=O)[C@H](CC(N)=O)NC(=O)[C@@H](NC(=O)[C@H](CCC(=O)O)NC(=O)[C@H](CC(N)=O)NC(=O)[C@@H](NC(=O)[C@H](CCCCN)NC(=O)[C@H](CCC(N)=O)NC(=O)[C@H](CC(N)=O)NC(=O)[C@H](Cc1ccccc1)NC(=O)[C@H](CCC(=O)O)NC(=O)[C@H](CC(=O)O)NC(=O)[C@H](CC(=O)O)NC(C)=O)[C@@H](C)CC)C(C)C)[C@@H](C)CC)[C@@H](C)CC)C(=O)N[C@@H](CCC(=O)O)C(=O)N[C@@H](CCC(=O)O)C(=O)N[C@@H](CO)C(=O)N[C@@H](CC(=O)O)C(=O)N[C@@H](CCCNC(=N)N)C(=O)N[C@@H](CCCCN)C(=O)N[C@@H](CC(C)C)C(=O)N[C@@H](CCC(=O)O)C(=O)N[C@@H](CCC(=O)O)C(=O)N[C@@H](CO)C(=O)N[C@@H](CC(=O)O)C(=O)N[C@@H](CCCCN)C(=O)N[C@@H](CCCCN)C(=O)N[C@@H](C)C(N)=O` [Compound 2] (Ac-DDEFNQKINEVNEKIEEILKKIEESDRKLEESDKKA-NH2) displayed a CC50 at 1 day in series [1] of over 8 µM. This compound showed a pIC50 with RSV A long virus strain of under 5.10.
With `CC[C@H](C)[C@H](NC(=O)[C@H](CO)NC(=O)[C@H](C)NC(=O)[C@H](CC(=O)O)NC(=O)[C@H](Cc1ccccc1)NC(C)=O)C(=O)N[C@@H](CCC(=O)O)C(=O)N[C@@H](CCC(=O)O)C(=O)N[C@H](C(=O)N[C@@H](CC(N)=O)C(=O)N[C@@H](CCCNC(=N)N)C(=O)N[C@@H](CCCNC(=N)N)C(=O)N[C@H](C(=O)N[C@@H](CCC(=O)O)C(=O)N[C@@H](CCC(=O)O)C(=O)N[C@@H](CO)C(=O)N[C@@H](CC(C)C)C(=O)N[C@@H](CCCNC(=N)N)C(=O)N[C@@H](CCCNC(=N)N)C(=O)N[C@H](C(=O)N[C@@H](CCC(=O)O)C(=O)N[C@@H](CCC(=O)O)C(=O)N[C@@H](CO)C(=O)N[C@@H](CC(=O)O)C(=O)N[C@@H](CCCNC(=N)N)C(=O)N[C@@H](CCCNC(=N)N)C(=O)N[C@@H](CC(C)C)C(=O)N[C@@H](CCC(=O)O)C(=O)N[C@H](C(=O)N[C@@H](CC(N)=O)C(=O)N[C@@H](CCCCN)C(=O)N[C@@H](CCCCN)C(=O)N[C@@H](C)C(=O)NCC(=O)N[C@@H](CO)C(=O)NCC(=O)N[C@@H](CO)C(=O)NCC(=O)N[C@@H](CCCCNC(=O)CCC(=O)OC1CCC2(C)C(=CCC3C2CCC2(C)C(C(C)CCCC(C)C)CCC32)C1)C(N)=O)C(C)C)[C@@H](C)CC)[C@@H](C)CC)C(C)C` (stereo partly drawn) [Compound 12] (Ac-FDASIEEVNRRIEESLRRIEESDRRLEVNKKAGSGSGK(X1)-NH2), the CC50 at 1 day in series [1] (setting [2]) is over 8 µM. Moreover, in the series with RSV A long virus strain (setting [3]), the pIC50 was 7.55.
In the case of `CC[C@H](C)[C@H](NC(=O)[C@H](CO)NC(=O)[C@H](C)NC(=O)[C@H](CC(=O)O)NC(=O)[C@H](Cc1ccccc1)NC(C)=O)C(=O)N[C@@H](CCC(=O)O)C(=O)N[C@@H](CCC(=O)O)C(=O)N[C@H](C(=O)N[C@@H](CC(N)=O)C(=O)N[C@@H](CCCNC(=N)N)C(=O)N[C@@H](CCCNC(=N)N)C(=O)N[C@H](C(=O)N[C@@H](CCC(=O)O)C(=O)N[C@@H](CCC(=O)O)C(=O)N[C@@H](CO)C(=O)N[C@@H](CC(C)C)C(=O)N[C@@H](CCCNC(=N)N)C(=O)N[C@@H](CCCNC(=N)N)C(=O)N[C@H](C(=O)N[C@@H](CCC(=O)O)C(=O)N[C@@H](CCC(=O)O)C(=O)N[C@@H](CO)C(=O)N[C@@H](CC(=O)O)C(=O)N[C@@H](CCCNC(=N)N)C(=O)N[C@@H](CCCNC(=N)N)C(=O)N[C@@H](CC(C)C)C(=O)N[C@@H](CCC(=O)O)C(=O)N[C@H](C(=O)N[C@@H](CC(N)=O)C(=O)N[C@@H](CCCCN)C(=O)N[C@@H](CCCCN)C(=O)N[C@@H](C)C(N)=O)C(C)C)[C@@H](C)CC)[C@@H](C)CC)C(C)C` [Compound 1] (Ac-FDASIEEVNRRIEESLRRIEESDRRLEVNKKA-NH2), the CC50 at 1 day in series [1] is over 8 µM. The compound further showed a pIC50 in the series on RSV A long virus strain of 5.87.
For `CC[C@H](C)[C@H](NC(=O)[C@H](CO)NC(C)=O)C(=O)N[C@@H](CO)C(=O)N[C@@H](CCC(N)=O)C(=O)N[C@H](C(=O)N[C@@H](CC(N)=O)C(=O)N[C@@H](CCC(=O)O)C(=O)N[C@@H](CCCCN)C(=O)N[C@H](C(=O)N[C@@H](CC(N)=O)C(=O)N[C@@H](CCC(=O)O)C(=O)N[C@H](C(=O)N[C@@H](CCC(N)=O)C(=O)N[C@@H](CO)C(=O)N[C@@H](CC(C)C)C(=O)N[C@@H](CCC(=O)O)C(=O)N[C@@H](CCC(=O)O)C(=O)N[C@@H](CCCCN)C(=O)N[C@@H](CO)C(=O)N[C@@H](CC(=O)O)C(=O)N[C@@H](CCCCN)C(=O)N[C@@H](CC(C)C)C(=O)N[C@@H](CC(C)C)C(=O)N[C@@H](CCCCN)C(=O)N[C@@H](CO)C(=O)N[C@@H](CCC(=O)O)C(=O)N[C@@H](C)C(=O)N[C@@H](C)C(=O)N[C@@H](C)C(=O)N[C@@H](CCCCN)C(=O)N[C@@H](CCCCNC(=O)CCC(=O)OC1CCC2(C)C(=CCC3C2CCC2(C)C(C(C)CCCC(C)C)CCC32)C1)C(N)=O)[C@@H](C)CC)[C@@H](C)CC)C(C)C` (stereo partly drawn) [Compound 35] (Ac-SISQVNEKINEIQSLEEKSDKLLKSEAAAKK(X1)-NH2), in series [1] (setting [2]), the CC50 at 1 day came to 5.1 µM. Further, the pIC50 in the series with RSV A long virus strain (setting [3]) is 5.26.

These data come from US20260250325A1, “Antiviral Polypeptide Membrane Fusion Inhibitor, and Preparation Method and Application Thereof” (priority 2025, published 2026).
